Reference: patent publication US4513008A, “Virucidal compositions and therapy” (The Vinoxen Company, Inc., priority 1982, dated 1985)
Converted amounts (≈) assume the structure as drawn.

How the values were obtained:
[1] = test system: herpes simplex virus type 2 (HSV-2); assay: In vitro HSV-2 bioassay: virucidal plaque assay (HEP-2 cells); format: cell-based, HSV-2 strain 333; conditions: for plaque count / titer: Table 3
Experimental: Evidence of the efficacy of the virucides of the invention in vitro has been obtained from bioassay using HSV-2, using a standard assay procedure. Serial dilutions of the compounds were tested for their ability to prevent plaque formation by a stock virus suspension. Reduction of plaque titer by test compounds as compared to mock treated controls was indicative of virucidal activity. […] These represent the upper limit for the drug concentration, since dilutions were not carried beyond 1:6400 and in some cases 1:12800.
Cell Culture. Cell cultures used for the propagation and titration of HSV-2 were the human diploid lung embryonic line MRC-5 and the human malignant epitheloid cell line HEP-2 respectively. Stock monolayer cultures of both cell lines were propagated in Dulbecco's Modified Eagle's medium (DME) supplemented with 10% (V/V) calf serum. Spinner cultures for mass production of HEP-2 cells were grown in Joklik's medium supplemented with 10% (V/V) calf serum and 1% (W/V) pluronic acid. Monolayer cultures of HEP-2 cells for plaque or virucidal assay were seeded into 60 mm dishes in DME supplemented with 10% calf serum and antibiotics. Stock cultures were maintained in antibiotic free medium.
Herpes simplex virus, type 2 (HSV-2) strain 333 was obtained from Dr. John Hughes of the Dept. of Medical Microbiology, College of Medicine, The Ohio State University. Stocks of HSV-2 were prepared in the human diploid embryonic lung cell line, MRC-5. Confluent MRC-5 monolayer cultures in T-75 plastic flasks were washed one time with Hank's and Balanced Salt solution (HBSS) and infected with 0.5 ml of HSV-2, strain 333 stock. Virus was adsorbed for 1 hour at 37° C. Then the culture was refed with 15 ml of DME supplemented with 1% (V/V) calf serum. Virus was harvested 48 hours later when cytopathology was complete. Cultures were frozen and thawed rapidly three times to release cell associated virus, clarified by centrifugation at 10,000×g for 15 minutes at 4° C., aliquoted into 5 ml lots and frozen at -70° C. One lot was taken for virus titration.
HSV-2 was titrated by plaque assay in HEP-2 cells under a semi-solid methyl cellulose overlay. Tenfold serial dilutions of virus were prepared in HBSS and 0.3 ml aliquots of each dilution inoculated onto triplicate HEP-2 cell monolayers in 60 mm plastic petri dishes. Adsorption of virus was for 1 hour at 37° C. Plates were then overlayed with 5 ml of a 1:1 mixture of 2×DME supplemented with 2% (V/V) calf serum and 3% (W/V) methyl cellulose to give a final 1×DME supplemented with 1% calf serum and 1.5% methylcellulose. Infected plates were incubated at 37° C. in a humidified 10% CO2 atmosphere for 48 hours. Virus plaques were visualized by staining with crystal violet and counted under a dissecting microscope. Virus titers were calculated from the plaque numbers by averaging the plaque count and multiplying by 3.3 (0.3 ml plates).
The following procedure was employed to assay virucidal activity in various test samples. Compounds were received as a solution in DMSO and were serially diluted in HBSS as described for each experiment. For the test, 1 ml of each dilution was mixed with 1 ml of a stock virus suspension diluted to approximately 9×10^3 plaque forming units (P.F.U.)/ml. This test mixture was incubated at 25° C. for 30 minutes, then inoculated onto a cell culture (HEP-2) for plaque assay as described previously. Mock treated (virus plus HBSS) controls were included with each test. Any reduction of plaque titer by test compounds as compared to the mock treated control was indicative of virucidal activity.
Samples from RP-HPLC fractionation of the CLOH, produced according to Example 2, as well as purified samples of palmitic, myristic and oleic acids and Vitamin D2, were tested for HSV-2 bioactivity. […] Pure oleic acid was not active in this assay, nor were palmitic and myristic acids and Vitamin D2. […]

[2] = Guinea pig toxicity controls (sham-infected, topical treatment); format: in vivo, guinea pigs; conditions: for Toxicity Controls Max. Irrit. Score: 0 to 4 scale
Experimental: Drugs. The substances tested consisted of four bottles labelled "A", "B", "C", and "D" with no identifying key. The samples were: A, 0.1 mg/ml DHA (0.003 mmol/ml); B, 5% w/w ACV (0.22 mmol/ml); C, 1 mg/ml DHA (0.03 mmol/ml); and D, 10 mg/ml DHA ([…]). […] All were treated as light-sensitive compounds.
Experimental Protocol. The guinea pigs were infected by applying a virus-soaked swab intravaginally, with agitation, for 20 seconds. Toxicity control animals were similar pretreated using swabs soaked in sterile Puck's balanced salt solution. Treatment began 20 hr later, with the compound or placebo applied topically intravaginally, perivaginally, and perianally using cotton swabs soaked in the respective substance. Treatment continued three times daily (8 a.m., noon, 4 p.m.) for 7 days. Ten infected animals were used for each coded substance, with twenty used for virus controls. Five sham-infected animals were concomitantly treated with each coded substance to serve as toxicity controls. Two guinea pigs were held separately to serve as normal untreated controls.
Each animal was observed daily for survival for a total of 28 days. On days 5 through 8 post-virus inoculation, the genital area was carefully examined and signs of irritation in the toxicity controls and lesion severity in injected animals was scored on a 0 to 4 scale using the same scale as in the mouse bioassay. The results were scored as average daily lesion (ADL) scores for each group, and as mean vaginal lesion (MVL) scores, calculated as the mean of the ADL scores for days 5-8. The maximum mean score for the toxicity control animals was also determined.

HSV-2 = assay: Separate experiments: speed of virus inhibition by DHA
[3] = Visually observed solubility in DMSO-HBSS; format: physicochemical; conditions: 1 mg in 1 ml of 70% DMSO-30% HBSS
Experimental: Vehicles. […] The DMSO-HBSS vehicle was selected based on the observed (visually) solubility of DHA in various DMSO-HBSS solutions. 1 mg DHA was soluble in 1 ml of 70% DMSO-30% HBSS.

CCC=CCC=CCC=CCC=CCC=CCC=CCCC(=O)O [DHA, 4,7,10,13,16,19 Docosahexaenoic Acid]
MIC ([1]; Human alphaherpesvirus 2, 0.5 h, Table 4 run, 30 min at 25° C., upper limit, dilutions to 1:12800, read-out: MIC (lowest concentration producing a 3-log reduction in virus titer)): 0.47 µg/mL (≈ 1.43 µM)
plaque count ([1]; dilution 1:10): 0
titer ([1]; dilution 1:10, control titer 4.5 × 10^3): 0
plaque count ([1]; dilution 1:100): 0
titer ([1]; dilution 1:100): 0
titer ([1]; dilution 1:400): 0
plaque count ([1]; dilution 1:400, TNTC = too numerous to count): 0
titer ([1]; dilution 1:800): 0
plaque count ([1]; dilution 1:800, TNTC = too numerous to count): 0
titer ([1]; dilution 1:1600): 0
plaque count ([1]; dilution 1:1600, TNTC = too numerous to count): 0
titer ([1]; dilution 1:3200): 0
plaque count ([1]; dilution 1:3200, TNTC = too numerous to count): 0
titer ([1]; dilution 1:6400): 0
plaque count ([1]; dilution 1:6400, TNTC = too numerous to count): 0
titer ([1]; dilution 1:12800): 0
plaque count ([1]; dilution 1:12800, TNTC = too numerous to count): 0
virucidal activity against HSV-2 in words ([1]; in vitro bioassay): potent and fast-acting virucides
Toxicity Controls Surv/Total ([2]; A: 0.1 mg/ml DHA in PEG-1000): 5/5
Toxicity Controls Max. Irrit. Score ([2]; A: 0.1 mg/ml DHA in PEG-1000): 0.0
Toxicity Controls Surv/Total ([2]; C: 1 mg/ml DHA in PEG-1000): 5/5
Toxicity Controls Max. Irrit. Score ([2]; C: 1 mg/ml DHA in PEG-1000): 0.0
Toxicity Controls Surv/Total ([2]; D: 10 mg/ml DHA in PEG-1000): 5/5
Toxicity Controls Max. Irrit. Score ([2]; D: 10 mg/ml DHA in PEG-1000): 0.0
virus inhibited (HSV-2; within 30 seconds of contact): more than 98%
virus inhibited (HSV-2; within 30 minutes of contact): > 99.99%
solubility [3]: soluble
